Measurements as given in ChEMBL document CHEMBL4715697, “Synthesis and biological activity of benzamide DNA minor groove binders” (2016).

Assays:
Assay type in all cases: functional
Conditions in all cases: read-out: Activity
[1] = test system: HL-60(TB); experiment: Growth inhibition of human HL-60(TB) cells assessed as cell growth at 10 uM incubated for 48 hrs by sulforhodamine B assay relative to control
[2] = test system: RPMI-8226; experiment: Growth inhibition of human RPMI-8226 cells assessed as cell growth at 10 uM incubated for 48 hrs by sulforhodamine B assay relative to control
[3] = test system: HOP-62; experiment: Growth inhibition of human HOP-62 cells assessed as cell growth at 10 uM incubated for 48 hrs by sulforhodamine B assay relative to control
[4] = test system: NCI-H226; experiment: Growth inhibition of human NCI-H226 cells assessed as cell growth at 10 uM incubated for 48 hrs by sulforhodamine B assay relative to control
[5] = test system: NCI-H322M; experiment: Growth inhibition of human NCI-H322M cells assessed as cell growth at 10 uM incubated for 48 hrs by sulforhodamine B assay relative to control
[6] = test system: NCI-H522; experiment: Growth inhibition of human NCI-H522 cells assessed as cell growth at 10 uM incubated for 48 hrs by sulforhodamine B assay relative to control
[7] = test system: HCC 2998; experiment: Growth inhibition of human HCC 2998 cells assessed as cell growth at 10 uM incubated for 48 hrs by sulforhodamine B assay relative to control
[8] = test system: HCT-116; experiment: Growth inhibition of human HCT-116 cells assessed as cell growth at 10 uM incubated for 48 hrs by sulforhodamine B assay relative to control
[9] = test system: HCT-15; experiment: Growth inhibition of human HCT-15 cells assessed as cell growth at 10 uM incubated for 48 hrs by sulforhodamine B assay relative to control
[10] = test system: HT-29; experiment: Growth inhibition of human HT-29 cells assessed as cell growth at 10 uM incubated for 48 hrs by sulforhodamine B assay relative to control
[11] = test system: KM12; experiment: Growth inhibition of human KM12 cells assessed as cell growth at 10 uM incubated for 48 hrs by sulforhodamine B assay relative to control
[12] = test system: SF-268; experiment: Growth inhibition of human SF-268 cells assessed as cell growth at 10 uM incubated for 48 hrs by sulforhodamine B assay relative to control
[13] = test system: SF-539; experiment: Growth inhibition of human SF-539 cells assessed as cell growth at 10 uM incubated for 48 hrs by sulforhodamine B assay relative to control
[14] = test system: SNB-19; experiment: Growth inhibition of human SNB-19 cells assessed as cell growth at 10 uM incubated for 48 hrs by sulforhodamine B assay relative to control
[15] = test system: SNB-75; experiment: Growth inhibition of human SNB-75 cells assessed as cell growth at 10 uM incubated for 48 hrs by sulforhodamine B assay relative to control
[16] = test system: U-251; experiment: Growth inhibition of human U-251 cells assessed as cell growth at 10 uM incubated for 48 hrs by sulforhodamine B assay relative to control
[17] = test system: LOX IMVI; experiment: Growth inhibition of human LOX IMVI cells assessed as cell growth at 10 uM incubated for 48 hrs by sulforhodamine B assay relative to control
[18] = test system: Malme-3M; experiment: Growth inhibition of human Malme-3M cells assessed as cell growth at 10 uM incubated for 48 hrs by sulforhodamine B assay relative to control
[19] = test system: M14; experiment: Growth inhibition of human M14 cells assessed as cell growth at 10 uM incubated for 48 hrs by sulforhodamine B assay relative to control
[20] = test system: MDA-MB-435; experiment: Growth inhibition of human MDA-MB-435 cells assessed as cell growth at 10 uM incubated for 48 hrs by sulforhodamine B assay relative to control
[21] = test system: SK-MEL-2; experiment: Growth inhibition of human SK-MEL-2 cells assessed as cell growth at 10 uM incubated for 48 hrs by sulforhodamine B assay relative to control
[22] = test system: SK-MEL-28; experiment: Growth inhibition of human SK-MEL-28 cells assessed as cell growth at 10 uM incubated for 48 hrs by sulforhodamine B assay relative to control
[23] = test system: SK-MEL-5; experiment: Growth inhibition of human SK-MEL-5 cells assessed as cell growth at 10 uM incubated for 48 hrs by sulforhodamine B assay relative to control
[24] = test system: UACC-257; experiment: Growth inhibition of human UACC-257 cells assessed as cell growth at 10 uM incubated for 48 hrs by sulforhodamine B assay relative to control
[25] = test system: UACC-62; experiment: Growth inhibition of human UACC-62 cells assessed as cell growth at 10 uM incubated for 48 hrs by sulforhodamine B assay relative to control
[26] = test system: IGROV-1; experiment: Growth inhibition of human IGROV-1 cells assessed as cell growth at 10 uM incubated for 48 hrs by sulforhodamine B assay relative to control
[27] = test system: OVCAR-3; experiment: Growth inhibition of human OVCAR-3 cells assessed as cell growth at 10 uM incubated for 48 hrs by sulforhodamine B assay relative to control
[28] = test system: OVCAR-5; experiment: Growth inhibition of human OVCAR-5 cells assessed as cell growth at 10 uM incubated for 48 hrs by sulforhodamine B assay relative to control
[29] = test system: OVCAR-8; experiment: Growth inhibition of human OVCAR-8 cells assessed as cell growth at 10 uM incubated for 48 hrs by sulforhodamine B assay relative to control
[30] = test system: 786-0; experiment: Growth inhibition of human 786-0 cells assessed as cell growth at 10 uM incubated for 48 hrs by sulforhodamine B assay relative to control
[31] = test system: ACHN; experiment: Growth inhibition of human ACHN cells assessed as cell growth at 10 uM incubated for 48 hrs by sulforhodamine B assay relative to control
[32] = test system: CAKI-1; experiment: Growth inhibition of human CAKI-1 cells assessed as cell growth at 10 uM incubated for 48 hrs by sulforhodamine B assay relative to control
[33] = test system: SN12C; experiment: Growth inhibition of human SN12C cells assessed as cell growth at 10 uM incubated for 48 hrs by sulforhodamine B assay relative to control
[34] = test system: TK-10; experiment: Growth inhibition of human TK-10 cells assessed as cell growth at 10 uM incubated for 48 hrs by sulforhodamine B assay relative to control
[35] = test system: UO-31; experiment: Growth inhibition of human UO-31 cells assessed as cell growth at 10 uM incubated for 48 hrs by sulforhodamine B assay relative to control
[36] = test system: PC-3; experiment: Growth inhibition of human PC-3 cells assessed as cell growth at 10 uM incubated for 48 hrs by sulforhodamine B assay relative to control
[37] = test system: MCF7; experiment: Growth inhibition of human MCF7 cells assessed as cell growth at 10 uM incubated for 48 hrs by sulforhodamine B assay relative to control
[38] = test system: BT-549; experiment: Growth inhibition of human BT-549 cells assessed as cell growth at 10 uM incubated for 48 hrs by sulforhodamine B assay relative to control
[39] = test system: T47D; experiment: Growth inhibition of human T47D cells assessed as cell growth at 10 uM incubated for 48 hrs by sulforhodamine B assay relative to control
[40] = test system: MDA-MB-468; experiment: Growth inhibition of human MDA-MB-468 cells assessed as cell growth at 10 uM incubated for 48 hrs by sulforhodamine B assay relative to control

| SMILES | growth at 10 µM [1] | growth at 10 µM [2] | growth at 10 µM [3] | growth at 10 µM [4] | growth at 10 µM [5] | growth at 10 µM [6] | growth at 10 µM [7] | growth at 10 µM [8] | growth at 10 µM [9] | growth at 10 µM [10] | growth at 10 µM [11] | growth at 10 µM [12] | growth at 10 µM [13] | growth at 10 µM [14] | growth at 10 µM [15] | growth at 10 µM [16] | growth at 10 µM [17] | growth at 10 µM [18] | growth at 10 µM [19] | growth at 10 µM [20] | further results |
| --- | --- | --- | --- | --- | --- | --- | --- | --- | --- | --- | --- | --- | --- | --- | --- | --- | --- | --- | --- | --- | --- |
| CC(=O)Nc1cc(CCl)cc(NC(=O)c2ccc(C(=O)Nc3cccc(NC(=O)CCCN(C)C)c3)cc2)c1 | 101% | 116% | 106% | 93% | 108% | 104% | 99% | 106% | 93% | 104% | 104% | 101% | 100% | 106% | 82% | 100% | 92% | 100% | 104% | 100% | growth at 10 µM [21]: 116%; growth at 10 µM [22]: 96%; growth at 10 µM [23]: 93%; growth at 10 µM [24]: 100%; growth at 10 µM [25]: 101%; growth at 10 µM [26]: 116%; growth at 10 µM [27]: 113%; growth at 10 µM [28]: 92%; growth at 10 µM [29]: 98%; growth at 10 µM [30]: 107%; growth at 10 µM [31]: 99%; growth at 10 µM [32]: 104%; growth at 10 µM [33]: 105%; growth at 10 µM [34]: 106%; growth at 10 µM [35]: 98%; growth at 10 µM [36]: 104%; growth at 10 µM [37]: 71%; growth at 10 µM [38]: 106%; growth at 10 µM [39]: 95%; growth at 10 µM [40]: 91% |
| CCN(CC)CC(=O)Nc1ccc(C(=O)Nc2cc(CO)cc(NC(C)=O)c2)cc1 | 107% | 126% | 101% | 95.8% | 105% | 105% | 98.6% | 109% | 100% | 110% | 107% | 107% | 99.7% | 98% | 110% | 108% | 106% | 103% | 109% | 96.3% | growth at 10 µM [21]: 107%; growth at 10 µM [22]: 116%; growth at 10 µM [23]: 103%; growth at 10 µM [24]: 103%; growth at 10 µM [25]: 97%; growth at 10 µM [26]: 129%; growth at 10 µM [27]: 116%; growth at 10 µM [28]: 107%; growth at 10 µM [29]: 107%; growth at 10 µM [30]: 97.4%; growth at 10 µM [31]: 108%; growth at 10 µM [32]: 106%; growth at 10 µM [33]: 103%; growth at 10 µM [34]: 99.2%; growth at 10 µM [35]: 97.8%; growth at 10 µM [36]: 116%; growth at 10 µM [37]: 100%; growth at 10 µM [38]: 112%; growth at 10 µM [39]: 99.1%; growth at 10 µM [40]: 99.4% |
| CC(=O)Nc1cc(CO)cc(NC(=O)c2ccc(C(=O)NCCCN3CCOCC3)cc2)c1 | 107% | 95.3% | 105% | 95.6% | 105% | 91.1% | 100% | 105% | 103% | 115% | 113% | 109% | 97.3% | 107% | 90.2% | 99.5% | 101% | 106% | 98.9% | 103% | growth at 10 µM [21]: 94.3%; growth at 10 µM [22]: 102%; growth at 10 µM [23]: 102%; growth at 10 µM [24]: 103%; growth at 10 µM [25]: 101%; growth at 10 µM [26]: 110%; growth at 10 µM [27]: 118%; growth at 10 µM [28]: 103%; growth at 10 µM [29]: 103%; growth at 10 µM [30]: 101%; growth at 10 µM [31]: 108%; growth at 10 µM [32]: 109%; growth at 10 µM [33]: 104%; growth at 10 µM [34]: 91.9%; growth at 10 µM [35]: 100%; growth at 10 µM [36]: 100%; growth at 10 µM [37]: 102%; growth at 10 µM [38]: 94.2%; growth at 10 µM [39]: 108%; growth at 10 µM [40]: 96% |
